Assay results as given in the supplement of paper PMC10307832.

Columns and labels:
Assay in all cases: relative viability (nuclei count vs DMSO), 5 days (fraction); higher = more cells survive
A-427 = tested on: A-427
Method in brief: (§1)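 Lung cancer cell lines, seeded in 1536-well plates, were treated the following day by pin tool with a single drug or with five library-drug doses (not always all listed) in √10 steps on top of a fixed anchor-drug dose. Cells were fixed and nuclei stained in one step after 5 days, and nuclei were counted. Relative viability is the nuclei count for treated wells divided by that for vehicle wells, reported as medians of duplicate plates.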

COR-L 105 = tested on: COR-L 105
Method in brief: as §1

H3255 = tested on: H3255
Method in brief: as §1

HCC-44 = tested on: HCC-44
Method in brief: as §1

HCC-827 = tested on: HCC-827
Method in brief: as §1

LCLC-103H = tested on: LCLC-103H
Method in brief: as §1

LOU-NH91 = tested on: LOU-NH91
Method in brief: as §1

LXF-289 = tested on: LXF-289
Method in brief: as §1

NCI-H1792 = tested on: NCI-H1792
Method in brief: as §1

NCI-H1793 = tested on: NCI-H1793
Method in brief: as §1

NCI-H1915 = tested on: NCI-H1915
Method in brief: as §1

NCI-H1944 = tested on: NCI-H1944
Method in brief: as §1

NCI-H1975 = tested on: NCI-H1975
Method in brief: as §1

NCI-H1993 = tested on: NCI-H1993
Method in brief: as §1

NCI-H2023 = tested on: NCI-H2023
Method in brief: as §1

NCI-H2087 = tested on: NCI-H2087
Method in brief: as §1

NCI-H2170 = tested on: NCI-H2170
Method in brief: as §1

NCI-H358 = tested on: NCI-H358
Method in brief: as §1

NCI-H520 = tested on: NCI-H520
Method in brief: as §1

NCI-H522 = tested on: NCI-H522
Method in brief: as §1

SK-MES-1 = tested on: SK-MES-1
Method in brief: as §1

SW 1573 = tested on: SW 1573
Method in brief: as §1

SW 900 = tested on: SW 900
Method in brief: as §1

For `CN1CCN(CCOc2cc(OC3CCOCC3)c3c(Nc4c(Cl)ccc5c4OCO5)ncnc3c2)CC1` [Saracatinib] + CC(=O)Nc1cccc(-n2c(=O)n(C3CC3)c(=O)c3c(Nc4ccc(I)cc4F)n(C)c(=O)c(C)c32)c1 [Trametinib] (partner 0.02 µM), which relative viability (A-427; first compound 0.02 µM) is on record?
Its relative viability is 0.764.

What about the relative viability (A-427; first compound 0.2 µM) of the same compound?
The relative viability was 0.738.

And the relative viability (A-427; first compound 0.6325 µM)?
Its relative viability is 0.911.

And the relative viability (A-427; first compound 2 µM)?
The relative viability was 0.672.

What about the relative viability (COR-L 105; first compound 0.02 µM) of the same compound?
The relative viability was 0.486.

And the relative viability (COR-L 105; first compound 0.2 µM)?
Its relative viability is 0.437.

What about the relative viability (COR-L 105; first compound 0.6325 µM) of the same compound?
The relative viability was 0.37.

What about the relative viability (COR-L 105; first compound 2 µM) of the same compound?
The relative viability was 0.317.

And the relative viability (H3255; first compound 0.02 µM)?
The relative viability was 0.636.

What about the relative viability (H3255; first compound 0.2 µM) of the same compound?
The relative viability was 0.665.

And the relative viability (H3255; first compound 0.6325 µM)?
The relative viability was 0.663.

And the relative viability (H3255; first compound 2 µM)?
Its relative viability is 0.27.

What about the relative viability (HCC-44; first compound 0.02 µM) of the same compound?
Its relative viability is 1.05.

What about the relative viability (HCC-44; first compound 0.2 µM) of the same compound?
The relative viability was 1.02.

What about the relative viability (HCC-44; first compound 0.6325 µM) of the same compound?
Its relative viability is 1.18.

And the relative viability (HCC-44; first compound 2 µM)?
The relative viability was 1.21.

What about the relative viability (HCC-827; first compound 0.02 µM) of the same compound?
Its relative viability is 0.542.

What about the relative viability (HCC-827; first compound 0.2 µM) of the same compound?
The relative viability was 0.306.

What about the relative viability (HCC-827; first compound 0.6325 µM) of the same compound?
Its relative viability is 0.225.

And the relative viability (HCC-827; first compound 2 µM)?
The relative viability was 0.156.

What about the relative viability (LCLC-103H; first compound 0.02 µM) of the same compound?
Its relative viability is 0.716.

What about the relative viability (LCLC-103H; first compound 0.2 µM) of the same compound?
The relative viability was 0.58.

What about the relative viability (LCLC-103H; first compound 0.6325 µM) of the same compound?
Its relative viability is 0.751.

What about the relative viability (LCLC-103H; first compound 2 µM) of the same compound?
The relative viability was 0.656.

And the relative viability (LOU-NH91; first compound 0.02 µM)?
The relative viability was 0.731.

And the relative viability (LOU-NH91; first compound 0.2 µM)?
Its relative viability is 0.694.

What about the relative viability (LOU-NH91; first compound 0.6325 µM) of the same compound?
Its relative viability is 0.758.

And the relative viability (LOU-NH91; first compound 2 µM)?
The relative viability was 0.636.

And the relative viability (LXF-289; first compound 0.02 µM)?
The relative viability was 0.677.

What about the relative viability (LXF-289; first compound 0.2 µM) of the same compound?
Its relative viability is 0.644.

And the relative viability (LXF-289; first compound 0.6325 µM)?
The relative viability was 0.655.

What about the relative viability (LXF-289; first compound 2 µM) of the same compound?
Its relative viability is 0.685.

And the relative viability (NCI-H1792; first compound 0.02 µM)?
Its relative viability is 0.492.

And the relative viability (NCI-H1792; first compound 0.2 µM)?
Its relative viability is 0.355.

And the relative viability (NCI-H1792; first compound 0.6325 µM)?
The relative viability was 0.382.

And the relative viability (NCI-H1792; first compound 2 µM)?
Its relative viability is 0.3.

And the relative viability (NCI-H1793; first compound 0.02 µM)?
Its relative viability is 0.439.

And the relative viability (NCI-H1793; first compound 0.2 µM)?
Its relative viability is 0.395.

And the relative viability (NCI-H1793; first compound 0.6325 µM)?
Its relative viability is 0.513.

And the relative viability (NCI-H1793; first compound 2 µM)?
The relative viability was 0.475.

What about the relative viability (NCI-H1915; first compound 0.02 µM) of the same compound?
The relative viability was 0.305.

What about the relative viability (NCI-H1915; first compound 0.2 µM) of the same compound?
Its relative viability is 0.292.

And the relative viability (NCI-H1915; first compound 0.6325 µM)?
Its relative viability is 0.251.

What about the relative viability (NCI-H1915; first compound 2 µM) of the same compound?
Its relative viability is 0.265.

What about the relative viability (NCI-H1944; first compound 0.02 µM) of the same compound?
The relative viability was 0.421.

And the relative viability (NCI-H1944; first compound 0.2 µM)?
The relative viability was 0.391.

And the relative viability (NCI-H1944; first compound 0.6325 µM)?
Its relative viability is 0.417.

And the relative viability (NCI-H1944; first compound 2 µM)?
The relative viability was 0.308.

And the relative viability (NCI-H1975; first compound 0.02 µM)?
Its relative viability is 0.37.

What about the relative viability (NCI-H1975; first compound 0.2 µM) of the same compound?
Its relative viability is 0.412.

And the relative viability (NCI-H1975; first compound 0.6325 µM)?
The relative viability was 0.391.

And the relative viability (NCI-H1975; first compound 2 µM)?
Its relative viability is 0.267.

What about the relative viability (NCI-H1993; first compound 0.02 µM) of the same compound?
Its relative viability is 0.539.

And the relative viability (NCI-H1993; first compound 0.2 µM)?
Its relative viability is 0.518.

What about the relative viability (NCI-H1993; first compound 0.6325 µM) of the same compound?
Its relative viability is 0.528.

And the relative viability (NCI-H1993; first compound 2 µM)?
Its relative viability is 0.5.

What about the relative viability (NCI-H2023; first compound 0.02 µM) of the same compound?
The relative viability was 0.52.

What about the relative viability (NCI-H2023; first compound 0.2 µM) of the same compound?
Its relative viability is 0.269.

And the relative viability (NCI-H2023; first compound 0.6325 µM)?
Its relative viability is 0.487.

What about the relative viability (NCI-H2023; first compound 2 µM) of the same compound?
The relative viability was 0.348.

What about the relative viability (NCI-H2087; first compound 0.02 µM) of the same compound?
Its relative viability is 0.24.

What about the relative viability (NCI-H2087; first compound 0.2 µM) of the same compound?
Its relative viability is 0.142.

What about the relative viability (NCI-H2087; first compound 0.6325 µM) of the same compound?
Its relative viability is 0.23.

And the relative viability (NCI-H2087; first compound 2 µM)?
The relative viability was 0.194.

What about the relative viability (NCI-H2170; first compound 0.02 µM) of the same compound?
Its relative viability is 0.917.

And the relative viability (NCI-H2170; first compound 0.2 µM)?
Its relative viability is 0.859.

What about the relative viability (NCI-H2170; first compound 0.6325 µM) of the same compound?
Its relative viability is 0.916.

And the relative viability (NCI-H2170; first compound 2 µM)?
Its relative viability is 0.862.

And the relative viability (NCI-H358; first compound 0.02 µM)?
Its relative viability is 0.156.

And the relative viability (NCI-H358; first compound 0.2 µM)?
Its relative viability is 0.131.

What about the relative viability (NCI-H358; first compound 0.6325 µM) of the same compound?
The relative viability was 0.105.

And the relative viability (NCI-H358; first compound 2 µM)?
The relative viability was 0.0979.

And the relative viability (NCI-H520; first compound 0.02 µM)?
Its relative viability is 0.703.

And the relative viability (NCI-H520; first compound 0.2 µM)?
The relative viability was 0.53.

What about the relative viability (NCI-H520; first compound 0.6325 µM) of the same compound?
Its relative viability is 0.586.

What about the relative viability (NCI-H520; first compound 2 µM) of the same compound?
Its relative viability is 0.273.

What about the relative viability (NCI-H522; first compound 0.02 µM) of the same compound?
The relative viability was 0.708.

And the relative viability (NCI-H522; first compound 0.2 µM)?
Its relative viability is 0.745.

And the relative viability (NCI-H522; first compound 0.6325 µM)?
The relative viability was 0.788.

What about the relative viability (NCI-H522; first compound 2 µM) of the same compound?
Its relative viability is 0.536.

And the relative viability (SK-MES-1; first compound 0.02 µM)?
Its relative viability is 0.548.

What about the relative viability (SK-MES-1; first compound 0.2 µM) of the same compound?
The relative viability was 0.6.

What about the relative viability (SK-MES-1; first compound 0.6325 µM) of the same compound?
Its relative viability is 0.347.

And the relative viability (SK-MES-1; first compound 2 µM)?
The relative viability was 0.256.

What about the relative viability (SW 1573; first compound 0.02 µM) of the same compound?
Its relative viability is 0.507.

And the relative viability (SW 1573; first compound 0.2 µM)?
Its relative viability is 0.598.

And the relative viability (SW 1573; first compound 0.6325 µM)?
Its relative viability is 0.457.

And the relative viability (SW 1573; first compound 2 µM)?
Its relative viability is 0.364.

What about the relative viability (SW 900; first compound 0.02 µM) of the same compound?
The relative viability was 0.624.

What about the relative viability (SW 900; first compound 0.2 µM) of the same compound?
Its relative viability is 0.443.

What about the relative viability (SW 900; first compound 0.6325 µM) of the same compound?
Its relative viability is 0.647.

And the relative viability (SW 900; first compound 2 µM)?
The relative viability was 0.529.
